# Assay results published in article PMC7005646, “Overcoming resistance to anabolic SARM therapy in experimental cancer cachexia with an HDAC inhibitor” (EMBO Molecular Medicine, 2020).
# Experiments:
# [1] = system: C‐26 tumor‐bearing mice; assay: Initial AR‐42/GTx‐024 combination study (Study 1), male C‐26 tumor‐bearing mice; format: in vivo, mouse; conditions: Study 1, male, GTx‐024 15 mg/kg, AR‐42 10 mg/kg, or both
# [2] = system: serum cytokines; assay: Serum cytokine panel (multiplex), terminal samples from Study 2; format: in vivo, mouse
# Description: (§1) This confirmatory study was performed exactly as Study 1 with expanded animal numbers. Tumor‐free control groups were maintained at 6 animals each, whereas 10 animals were included in each of the tumor‐bearing groups. […] Grip strength was measured on study days 0 (baseline) and 16. Due to rapid model progression, this study was terminated on day 17 after only 12 days of treatment.
# Serum cytokine panel analyses were performed by a commercial vendor (Eve Technologies, Calgary, Canada) as previously described (Tseng et al, 2015a). Serum interleukin‐6 (IL‐6) was measured using a commercial ELISA kit (R&D Systems, Minneapolis, MN, USA) according to the manufacturer's instructions.
# [3] = system: IIb HDACs; assay: In vitro HDAC inhibition assay, class IIb isoforms; format: biochemical, human; conditions: 1 μM AR‐42; range over isoforms
# Description: (§2) HDAC activity was measured by a commercial vendor using human recombinant HDAC enzymes and fluorogenic HDAC substrates (Eurofins Cerep SA, Celle L'Evescault, France). Substrate concentrations ranged from 20 to 400 μM, and incubation conditions ranged from 10 to 90 min (RT or 37°C), depending on isoform. Results are expressed as percent inhibition of control specific activity in the presence of 1 μM AR‐42.
# [4] = system: pSTAT3 (Y705); assay: pSTAT3/tSTAT3 Western blot of gastrocnemius muscle; format: in vivo, mouse
# Description: Western blots from all studies were performed on gastrocnemius muscle from representative animals lysed by Nonidet P‐40 isotonic lysis buffer [50 mM Tris–HCl, pH 7.5, 120 mM NaCl, 1% (v/v) Nonidet P‐40, 1 mM EDTA, 50 mM NaF, 40 mM glycerophosphate, and […] each of protease inhibitors (aprotinin, pepstatin, and leupeptin)]. Equivalent amounts of protein from each sample, as determined by the Bradford assay (Bio‐Rad), were resolved by SDS–PAGE and then transferred (semi‐dry) onto Immobilon nitrocellulose membranes (Millipore, Bellerica, MA). Membranes were washed twice with TBST [Tris‐buffered saline (TBS) containing 0.1% Tween‐20], blocked with 5% non‐fat milk in TBST for 1 h, and then washed an additional three times. Membranes were incubated with specific primary antibody in TBST (1:1,000) at 4°C overnight, washed three times (TBST), and then incubated with appropriate goat anti‐rabbit or anti‐mouse IgG–horseradish peroxidase‐conjugated secondary antibodies (1:5,000) at room temperature (1 h). Following additional washes (TBST), immunoblots were visualized as appropriate by ECL chemiluminescence (Amersham Biosciences, Little Chalfont, United Kingdom) or Duration HRP Chemiluminescence (Alkali Scientific, Florida, United States). Primary antibodies: phospho‐STAT3 (Tyr705) (D3A7) XP® rabbit mAb #9145, STAT3 (124H6) mouse mAb #9139 (Cell Signaling Technology, Danvers, MA); α‐tubulin (B‐7), sc‐5286 (Santa Cruz Biotechnologies, Santa Cruz, CA); androgen receptor (EP670Y), ab52615 (Abcam, Cambridge, MA) and GAPDH (6C5), sc‐32233 (Santa Cruz Biotechnologies, Santa Cruz, CA).
# [5] = system: pSTAT3 in C‐26 tumors; assay: Phospho‐STAT3/STAT3 ELISA in C‐26 tumor tissues, Study 2; format: in vivo, mouse; conditions: Study 2, 10 mg/kg
# Description: Expression of phospho‐STAT3 and total STAT3 in C‐26 tumor tissues was measured using commercial sandwich ELISA kits according to the manufacturer's instructions (PathScan® Phospho‐Stat3, #7300, and Total Stat3, #7305, Cell Signaling Technology, Danvers, MA).
# [6] = parameters: method as in Sborov et al, 2017; conditions: patients; ref Sborov et al, 2017; cited from earlier work
# [7] = system: C‐26 tumor‐bearing mice; assay: AR‐42 dose–response study in the C‐26 cachexia model; format: in vivo, mouse
# Description: (§3) These studies were performed as previously described (Tseng et al, 2015a) with modifications. Tumors were established in the right flank of CD2F1 mice by subcutaneous injection of C‐26 cells (0.5 × 10^6 cells in 0.1 ml). […] TFM‐4AS‐1 (a potent experimental SARM), DHT, and vehicles were administered by subcutaneous injection.
# Therefore the efficacy and associated exposures of reduced doses of AR‐42 were determined. Male CD2F1 mice were stratified by body weight and then randomly assigned into five groups of six animals each. C‐26 tumors were established in four of the groups, while those in the fifth group, serving as tumor‐free controls, were injected with sterile saline. Six days later, animals with palpable tumors were treated with AR‐42 once daily at 10 (n = 5) and 20 mg/kg (n = 6), and every other day at 50 mg/kg (n = 5, the originally described anti‐cachectic dose; Tseng et al, 2015a), or vehicle control (n = 4) for 13 days. Upon sacrifice on study day 18, when the majority of tumor‐bearing control mice met euthanasia criteria, the left gastrocnemius muscle was excised, flash‐frozen in liquid nitrogen, and stored at −80°C for subsequent analyses. Carcass weights were corrected for tumor weight by assuming a tumor density equivalent to water (1 g/cm^3). […] This study was performed as described above with animals treated with AR‐42 once daily at 1, 3, and 10 mg/kg or with vehicle control (n = 8).
# [8] = system: class I HDACs; assay: In vitro HDAC inhibition assay, class I isoforms; format: biochemical, human; conditions: 1 μM AR‐42; range over isoforms
# Description: as §2
# [9] = system: C‐26 tumor‐bearing mice; assay: Confirmatory AR‐42/GTx‐024 combination study (Study 2), male C‐26 tumor‐bearing mice; format: in vivo, mouse
# Description: as §3, §1
# Forelimb grip strength was measured using Bio‐GS3 Grip Strength Test Meter (Forceleader DBA Bioseb, Pinellas Park, FL). Each mouse was held by the base of its tail and lowered over the apparatus until its forepaws grasped the metal pull bar. The mouse was then gently pulled horizontally in a straight line away from the grip strength meter until the mouse released the bar. The force applied to the bar at the moment of release was recorded as the peak force. Five measurements were taken from each mouse, the average of which was designated as the mouse's grip strength.
# [10] = C‐26 Tumor‐bearing, GTx‐024 15 mg/kg, AR‐42 10 mg/kg, or both, mean ± SD
# [11] = Study 2, AR‐42 10 mg/kg alone or with GTx‐024 15 mg/kg
compound,measurement,setting,value
CC(C)[C@H](C(=O)Nc1ccc(C(=O)NO)cc1)c1ccccc1 [AR‐42],terminal body weight corrected for tumor mass,"[1]; day 18, 13 days daily oral",91.2 ± 3.7 % of tumor‐free controls
same,terminal gastrocnemius mass,[1]; day 18,94.3 ± 1.4 % of tumor‐free controls
same,terminal quadriceps mass,[1]; day 18,93.2 ± 6.3 % of tumor‐free controls
same,"GM‐CSF, serum",[2]; [10],18.70 ± 3.77 pg/mL
same,"G‐CSF, serum",[2]; [10],2782.18 ± 2191.30 pg/mL
same,"IL‐6, serum",[2]; [10],256.59 ± 183.1 pg/mL
same,"IL‐17, serum",[2]; [10],1.82 ± 0.85 pg/mL
same,"IP‐10, serum",[2]; [10],215.35 ± 52.46 pg/mL
same,"KC, serum",[2]; [10],363.38 ± 200.65 pg/mL
same,"LIF, serum",[2]; [10],15.79 ± 5.15 pg/mL
same,"LIX, serum",[2]; [10],2515.38 ± 3119.67 pg/mL
same,"M‐CSF, serum",[2]; [10],20.21 ± 4.63 pg/mL
same,effect on circulating cytokine levels,"[2]; Study 2, 10 mg/kg monotherapy, tumor‐bearing",did not significantly reduce circulating levels of any evaluated cytokine
same,inhibition of class IIb HDACs,[3],86–100%
same,pSTAT3 in gastrocnemius,"[4]; female C‐26 tumor‐bearing mice, Study 3",reduced levels of pSTAT3 activation
same,pSTAT3 in gastrocnemius,"[4]; male C‐26 tumor‐bearing mice, Study 1",reduced pSTAT3 but not equally in all animals
same,pSTAT3 signaling within the C‐26 tumors,[5],did not significantly suppress
same,well‐tolerated plasma exposure in humans,[6],8.5 µM·h
same,minimally efficacious dose (anti‐cachectic),"[7]; daily oral, 13 days, C‐26 model",10 mg/kg
same,effect on C‐26 tumor‐mediated reductions in tumor‐corrected body weight and gastrocnemius mass,"[7]; lower doses (1, 3 mg/kg daily)",not effective
same,effect on C‐26 tumor‐mediated reductions in tumor‐corrected body weight and gastrocnemius mass,[7]; thirteen daily oral doses of 20 or 10 mg/kg,ameliorated
same,inhibition of class I HDACs,[8],72–95%
same,effect on adipose tissue (epididymal fat pad),"[9]; Study 2, 10 mg/kg",no impact on adipose tissue
same,forelimb grip strength over vehicle‐treated tumor‐bearing controls,[9]; [11],improved grip strength
same,gastrocnemius and quadriceps mass relative to GTx‐024 monotherapy,[9]; [11],significantly improved gastrocnemius and quadriceps mass
